In ChEMBL document CHEMBL5325457, “Targeting m6A binding protein YTHDFs for cancer therapy” (Bioorg Med Chem, 2023):

Tests used:
[1] = Inhibition of YTHDF (unknown origin); set-up: species or system Homo sapiens
[2] = molecular target: T1, YTH domain-containing family protein 2 (Homo sapiens, UniProt Q9Y5A9); assay: Inhibition of YTHDF2 YTH domain (unknown origin) (383 to 579 residues) expressed as Escherichia coli BL21 (DE3) Rosetta cells by HTFR based binding assay
T1 sequence (Q9Y5A9 whole entry): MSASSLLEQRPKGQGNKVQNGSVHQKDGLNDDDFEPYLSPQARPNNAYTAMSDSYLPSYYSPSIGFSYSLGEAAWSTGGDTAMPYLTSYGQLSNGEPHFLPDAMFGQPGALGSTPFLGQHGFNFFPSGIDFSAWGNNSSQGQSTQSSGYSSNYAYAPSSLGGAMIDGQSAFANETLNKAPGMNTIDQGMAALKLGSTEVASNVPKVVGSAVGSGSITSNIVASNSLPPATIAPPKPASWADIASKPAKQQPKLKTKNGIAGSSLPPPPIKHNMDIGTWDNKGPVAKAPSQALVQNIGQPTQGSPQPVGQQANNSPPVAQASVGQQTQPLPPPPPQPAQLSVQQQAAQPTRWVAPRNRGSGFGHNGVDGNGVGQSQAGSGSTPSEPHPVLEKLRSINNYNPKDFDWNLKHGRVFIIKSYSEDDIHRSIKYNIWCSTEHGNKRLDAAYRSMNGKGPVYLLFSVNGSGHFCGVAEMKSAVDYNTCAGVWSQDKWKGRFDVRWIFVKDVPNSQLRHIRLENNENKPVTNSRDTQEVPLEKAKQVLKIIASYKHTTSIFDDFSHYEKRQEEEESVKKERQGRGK

| EC50 [1] [nM] | IC50 [2] [µM] | Structure (SMILES) |
| --- | --- | --- |
| 1690 | – | CCN(CC)CCn1sc2ccccc2c1=O |
| 2830 | – | O=c1c2ccccc2sn1CCN1CCOCC1 |
| – | 174 | CNc1ncnc2c(C)[nH]nc12 |
| – | 410 | O=c1cc(C2CC2)[nH]c(=O)[nH]1 |
| – | 161 | Cn1c(=O)cc(C2CC2)[nH]c1=O |
| – | 491 | CNc1ncnc2c(-c3ccccc3)[nH]nc12 |

| Structure (SMILES) | EC50 [1] [nM] | IC50 [2] [µM] |
| --- | --- | --- |
| O=c1c2ccccc2[se]n1-c1ccccc1 [EBSELEN] | 1500 | – |
